Target: T1, human PPARγ (Homo sapiens, UniProt P37231)
T1 construct: expressed in transfected cells; host or cells: RK13 or COS-7
T1 sequence (P37231 238-503 limits assumed): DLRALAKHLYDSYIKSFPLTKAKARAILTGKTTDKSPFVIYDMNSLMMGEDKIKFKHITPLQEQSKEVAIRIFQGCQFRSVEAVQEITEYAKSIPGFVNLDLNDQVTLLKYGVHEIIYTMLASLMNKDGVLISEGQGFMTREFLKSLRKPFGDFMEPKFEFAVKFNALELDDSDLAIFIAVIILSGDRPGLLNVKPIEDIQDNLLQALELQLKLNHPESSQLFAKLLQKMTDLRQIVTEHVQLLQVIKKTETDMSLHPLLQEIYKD
Assay: PPARγ/Gal4 transactivation system
Type: cell-based
Conditions: 10 μM
Description: PPAR activation was tested in vitro in RK13 or COS-7 fibroblast cell lines by measuring the transcriptional activity of chimeras composed of the DNA binding domain of the yeast Gal4 transcription factor and the ligand binding domain of the different PPARs. These latter results were then confirmed in cell lines according to the following protocols.
Culture protocols: RK13 were from ECACC (Porton Down, UK) and were grown in DMEM medium supplemented with 10% (V/V) fetal calf serum, 100 U/ml penicillin (Gibco, Paisley, UK) and 2 mM L-glutamine (Gibco, Paisley, UK). COS-7 cells were from ATCC and were grown in DMEM medium supplemented with 10% (V/V) fetal calf serum, 1% penicillin/streptomycine (Biochrom, AG), 1% of amino acids (Gibco) and 1% sodium pyruvate (Gibco).
The culture medium was changed every two days. Cells were kept at 37° C. in a humidified 95% air/5% CO2 atmosphere.
Description of plasmids used for transfection: The plasmids Gal4(RE)_TkpGL3, pGal4-hPPARα, pGal4-hPPARγ, pGal4-hPPARδ and pGal4-φ have been described in the literature (Raspe E et al., 1999). The pGal4-hPPARα, pGal4-hPPARγ and pGal4-hPPARδ constructs were obtained by cloning into the pGal4-φ vector PCR-amplified DNA fragments corresponding to the DEF domains of the human PPARs nuclear receptors.
Transfection of RK13: RK13 cells were seeded in 24-well culture dishes at 5×10^4 cells/well and transfected for 2 hours with the reporter plasmid Gal4(RE)_TkpGL3 (50 ng/well), the expression vectors pGal4-φ, pGal4-hPPARα, pGal4-hPPARγ and pGal-hPPARδ (100 ng/well) and the transfection efficiency control vector pRL-CMV (1 ng/well) according to the previously described protocol (Raspe E, Madsen L, Lefebvre A M, Leitersdorf I, Gelman L, Peinado-Onsurbe J, Dallongeville J, Fruchart J C, Berge R and Staels B, 1999), then incubated for 36 hours with the test compounds. RK13 cells were incubated with the different compounds at concentrations of 10, 30 and 100 μM or 1, 10 and 100 μM for 24 hours. At the end of the experiment, the cells were lysed (Gibco, Paisley, UK) and luciferase activity was determined with a Dual-Luciferase™ Reporter Assay System kit (Promega, Madison, Wis., USA) according to the supplier's instructions. The protein content of the cell extracts was then measured with the Bio-Rad Protein Assay (Bio-Rad, Munich, Germany) as directed by the supplier.
Transfection of COS7: Cells in suspension are transfected, in the presence of 10% (V/V) fetal calf serum, with 150 ng of DNA per well with a pGal4-PPAR/Gal4(RE)_TkpGL3 ratio of 1/10. Cells are then seeded in 96 well plates (4×10^4 cells/well) and incubated for 24 hours at 37° C. Activation with compounds is performed on 24 hours at 37° C. in culture medium without serum. At the end of the activation period, cells are lysed and luciferase activity is determined, using the Steady Glow Luciferase Kit (Promega), according to the supplier's instructions.

CSc1ccc(C(=O)/C=C/c2cc(C)c(OC(C)(C)C(=O)O)c(C)c2)cc1 [Compound 29, 1-[4-methylthiophenyl]-3-[3,5-dimethyl-4-carboxydimethylmethyloxyphenyl]prop-2-en-1-one] showed a maximum induction factor of 33.9.

Reference: US7566737B2 (Genfit, priority 2002, dated 2009)
